Test results from patent US20250003989A1, “METHODS FOR TAUOPATHY DIAGNOSIS AND TREATMENT” (The Children`s Medical Center Corporation, priority 2021, published 2025).

Tested on: naïve Tau
Test: In vitro second generation seeding without heparin, ThT assay
Conditions: equimolar effective concentration of heparin as contained in the catalytic amount of 2b seed
Experimental: Seeds were generated following the procedure described above at 50 μM protein concentration. The sample was vigorously pipetted to evenly disperse fibrils, and was added at a 2.5 mol % (1.25 μM protein concentration) to a 50 μM sample of new protein. Aggregation was followed with ThioflavinT assays. Thioflavin T (ThT) assays for Beta-sheet content were conducted with 50 μM protein content, and […] ThT in a 384-well Corning plate. A BioTek synergy2 plate reader was used with temperature control set at 37° C.

Sequence of naïve Tau (as listed by the source): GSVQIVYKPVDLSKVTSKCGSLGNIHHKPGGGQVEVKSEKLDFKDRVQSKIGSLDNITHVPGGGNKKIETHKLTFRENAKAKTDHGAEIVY

Substance: heparin
- ThT fluorescence, heparin-only control: no detectable ThT fluorescence
